Experimental data published in patent US20240279236A1, “COMPOUNDS AND METHODS OF TREATING TUBERCULOSIS” (Fimbrion Therapeutics, Inc., priority 2021, published 2024).

System: WT Mtb Erdman strain
Experiment: Microplate Alamar Blue Assay (MABA), Mtb growth inhibition
Assay type: cell-based, Mycobacterium tuberculosis
Conditions: Mycobacterium tuberculosis, ERDMAN, 168 h, Middlebrook 7H9 media, 7 days at 37° C. in 5% CO2

Compound | IC50 [nM]
CCc1nc(NCCCc2ccc(-c3ccc(OC(F)(F)F)cn3)cc2)c2cc(C)sc2n1 [Example 376, 2-ethyl-6-methyl-N-(3-(4-(5-(trifluoro-methoxy)pyridin-2-yl)phenyl)propyl)thieno [2,3-d]pyrimidin-4-amine] | 55
Cc1cc2c(NCCCc3ccc(-c4cnc(F)cn4)cc3)nc(-c3ccoc3)nc2s1 [Example 377, N-(3-[4-(5-fluoropyrazin-2-yl)phenyl]propyl)-2-(furan-3-yl)-6-methylthieno [2,3-d]pyrimidin-4-amine] | 8
Cc1cc2c(NCCCc3ccc(-c4cnc(C5CC5)cn4)cc3)nc(-c3ccoc3)nc2s1 [Example 378, N-(3-[4-(5-cyclopropyl-pyrazin-2-yl)phenyl]propyl)-2-(furan-3-yl)-6-methylthieno[2,3-d]pyrimidin-4-amine] | 63
Cc1cc2c(NCCCc3ccc(-c4cnc(C(F)(F)F)cn4)cc3)nc(-c3ccoc3)nc2s1 [Example 379, 2-(furan-3-yl)-6-methyl-N-(3-(4-[5-(trifluoromethyl)pyrazin-2-yl]phenyl)propyl) thieno[2,3-d]pyrimidin-4-amine] | 12
COc1cnc(-c2ccc(CCCNc3nc(-c4ccoc4)nc4sc(C)cc34)cc2)cn1 [Example 380, 2-(furan-3-yl)-N-(3-[4-(5-methoxypyrazin-2-yl)phenyl]propyl)-6-methylthieno[2,3-d]pyrimidin-4-amine] | 17
Cc1cc2c(NCCCc3ccc(-c4cnc(N(C)C)cn4)cc3)nc(-c3ccoc3)nc2s1 [Example 381, 5-[4-(3-([2-(furan-3-yl)-6-methylthieno[2,3-d]pyrimidin-4-yl]amino)propyl)phenyl]-N,N-dimethyl-pyrazin-2-amine] | 39
Cc1cc2c(NCCCc3ccc(-c4ccc(F)cn4)cc3)nc(-c3ccoc3)nc2s1 [Example 382, N-(3-[4-(5-fluoropyridin-2-yl)phenyl]propyl)-2-(furan-3-yl)-6-methylthieno[2,3-d]pyrimidin-4-amine] | 8
Cc1cc2c(NCCCc3ccc(-c4cncc(C(F)(F)F)n4)cc3)nc(-c3ccoc3)nc2s1 [Example 383, 2-(furan-3-yl)-6-methyl-N-(3-(4-[6-(trifluoromethyl)pyrazin-2-yl]phenyl)propyl) thieno[2,3-d]pyrimidin-4-amine] | 230
Cc1cc2c(NCCCc3ccc(-c4ccc(F)nc4)cc3)nc(-c3ccoc3)nc2s1 [Example 384, N-(3-[4-(6-fluoropyridin-3-yl)phenyl]propyl)-2-(furan-3-yl)-6-methylthieno[2,3-d]pyrimidin-4-amine] | 6
Cc1cc2c(NCCCc3ccc(-c4ccnc(C(F)(F)F)n4)cc3)nc(-c3ccoc3)nc2s1 [Example 385, 2-(furan-3-yl)-6-methyl-N-(3-(4-[2-(trifluoromethyl)pyrimidin-4-yl]phenyl)propyl) thieno[2,3-d]pyrimidin-4-amine] | 200
Cc1cc2c(NCCCc3ccc(-c4cnc(C(F)(F)F)nc4)cc3)nc(-c3ccoc3)nc2s1 [Example 386] | 220
Cc1cc2c(NCCCc3ccc(-c4ccc(C(F)(F)F)cn4)cc3)nc(-c3ccoc3)nc2s1 [Example 387, 2-(furan-3-yl)-6-methyl-N-(3-(4-[5-(trifluoromethyl)pyridin-2-yl]phenyl)propyl) thieno[2,3-d]pyrimidin-4-amine] | 5
Cc1cc2c(NCCCc3ccc(-c4ccc(OC(F)(F)F)cn4)cc3)nc(-c3ccoc3)nc2s1 [Example 388, 2-(furan-3-yl)-6-methyl-N-(3-(4-[5-(trifluoro-methoxy)pyridin-2-yl]phenyl)propyl)thieno[2,3-d]pyrimidin-4-amine] | 7
Cc1cc2c(NCCCc3ccc(-c4ccc(C(F)(F)F)nn4)cc3)nc(-c3ccoc3)nc2s1 [Example 389, 2-(furan-3-yl)-6-methyl-N-(3-(4-[6-(trifluoro-methyl)pyridazin-3-yl]phenyl)propyl)thieno[2,3-d]pyrimidin-4-amine] | 32
Cc1cc2c(NCCCc3ccc(-c4ccnc(O)c4)cc3)nc(-c3ccoc3)nc2s1 [Example 390, 4-[4-(3-([2-(furan-3-yl)-6-methylthieno[2,3-d]pyrimidin-4-yl]amino)propyl)phenyl]pyridin-2-ol] | 9300
Cc1cc2c(NCCCc3ccc(-c4cnccn4)cc3)nc(-c3ccoc3)nc2s1 [Example 391, 2-(furan-3-yl)-6-methyl-N-(3-[4-(pyrazin-2-yl)phenyl]propyl) thieno[2,3-d]pyrimidin-4-amine] | 62
Cc1cc2c(NCCCc3ccc(-c4cnc(OC(C)C)cn4)cc3)nc(-c3ccoc3)nc2s1 [Example 392, 2-(furan-3-yl)-6-methyl-N-(3-(4-[5-(propan-2-yloxy)pyrazin-2-yl]phenyl)propyl)thieno[2,3-d]pyrimidin-4-amine] | 44
Cc1cnc(-c2ccc(CCCNc3nc(-c4ccoc4)nc4sc(C)cc34)cc2)cn1 [Example 393, 2-(furan-3-yl)-6-methyl-N-(3-[4-(5-methyl-pyrazin-2-yl)phenyl]propyl) thieno[2,3-d] pyrimidin-4-amine] | 16

Compound | IC50 [nM]
Cc1cc2c(NCCCc3ccc(-c4ncc(C(F)(F)F)cn4)cc3)nc(-c3ccoc3)nc2s1 [Example 394, 2-(furan-3-yl)-6-methyl-N-(3-(4-[5-(trifluoromethyl)pyrimidin-2-yl]phenyl)propyl) thieno[2,3-d] pyrimidin-4-amine] | < 4
Cc1cc2c(NCCCc3ccc(-c4cnc(Cl)cn4)cc3)nc(-c3ccoc3)nc2s1 [Example 395, N-(3-[4-(5-chloropyrazin-2-yl)phenyl]propyl)-2-(furan-3-yl)-6-methylthieno[2,3-d]pyrimidin-4-amine] | 5
Cc1cc2c(NCCCc3ccc(-c4cnc(C#N)cn4)cc3)nc(-c3ccoc3)nc2s1 [Example 396, 5-[4-(3-([2-(furan-3-yl)-6-methylthieno[2,3-d]pyrimidin-4-yl]amino)propyl)phenyl]pyrazine-2-carbonitrile] | < 5
Cc1cc2c(NCCCc3ccc(-c4cnc5[nH]ccc5n4)cc3)nc(-c3ccoc3)nc2s1 [Example 397, 2-(furan-3-yl)-6-methyl-N-[3-(4-(5H-pyrrolo[2,3-b]pyrazin-2-yl)phenyl)propyl] thieno[2,3-d] pyrimidin-4-amine] | 5000
Cc1cc2c(NCCCc3ccc(-c4ccc(S(C)(=O)=O)cn4)cc3)nc(-c3ccoc3)nc2s1 [Example 398, 2-(furan-3-yl)-N-(3-[4-(5-methanesulfonyl-pyridin-2-yl)phenyl]propyl)-6-methylthieno [2,3-d]pyrimidin-4-amine] | > 460
CSc1cnc(-c2ccc(CCCNc3nc(-c4ccoc4)nc4sc(C)cc34)cc2)cn1 [Example 399, 2-(furan-3-yl)-6-methyl-N-(3-(4-[5-(methylsulfanyl)pyrazin-2-yl]phenyl)propyl) thieno[2,3-d] pyrimidin-4-amine] | > 270
Cc1cc2c(NCCCc3ccc(-c4ccc(N(C)C)nn4)cc3)nc(-c3ccoc3)nc2s1 [Example 400, 6-[4-(3-([2-(furan-3-yl)-6-methylthieno [2,3-d]pyrimidin-4-yl]amino)propyl)phenyl]-N,N-dimethylpyridazin-3-amine] | > 500
Cc1cc2c(NCCCc3ccc(-c4cnc(C(=O)N(C)C)cn4)cc3)nc(-c3ccoc3)nc2s1 [Example 401, 5-[4-(3-([2-(furan-3-yl)-6-methylthieno[2,3-d]pyrimidin-4-yl]amino)propyl)phenyl]-N,N-dimethylpyrazine-2-carboxamide] | 2200
Cc1cc2c(NCCCc3ccc(-c4ncc(F)cn4)cc3)nc(-c3ccoc3)nc2s1 [Example 402, N-(3-[4-(5-fluoropyrimidin-2-yl)phenyl]propyl)-2-(furan-3-yl)-6-methylthieno[2,3-d]pyrimidin-4-amine] | 8
Cc1cc2c(NCCCc3ccc(-c4cnc(CO)cn4)cc3)nc(-c3ccoc3)nc2s1 [Example 403, (5-[4-(3-([2-(furan-3-yl)-6-methylthieno[2,3-d]pyrimidin-4-yl]amino)propyl)phenyl]pyrazin-2-yl)methanol] | 70
CCc1nc(NCCCc2ccc(N3CCOCC3)cc2)c2cc(C)sc2n1 [Example 420, 2-ethyl-6-methyl-N-(3-(4-morpholinophenyl)propyl)thieno[2,3-d]pyrimidin-4-amine] | 160
CCc1nc(NCCCc2ccc(N3CCCCC3)cc2)c2cc(C)sc2n1 [Example 421, 2-ethyl-6-methyl-N-(3-(4-(piperidin-1-yl)phenyl)propyl) thieno[2,3-d]pyrimidin-4-amine] | 170
Cc1cc2c(NCCCc3ccc(N4CCOCC4)cc3)nc(C(F)(F)F)nc2s1 [Example 422, 6-methyl-N-(3-(4-morpholinophenyl)propyl)-2-(trifluoromethyl) thieno[2,3-d]pyrimidin-4-amine] | 2100
CSc1nc(NCCCc2ccc(-c3cnc(F)cn3)cc2)c2nc(C)sc2n1 [Example 424, N-(3-[4-(5-fluoropyrazin-2-yl)phenyl]propyl)-2-methyl-5-(methylsulfanyl)-[1,3]thiazolo[5,4-d]pyrimidin-7-amine] | 41
CSc1nc(NCCCc2ccc(-c3ccc(Cl)cc3)cc2)c2cc(C)sc2n1 [Example 425, N-(3-(4′-chloro-[1,1′-biphenyl]-4-yl)propyl)-6-methyl-2-(methylthio)thieno[2,3-d]pyrimidin-4-amine] | 17
Cc1cc2c(NCCCc3ccc(-c4ccc(OC(F)(F)F)cc4)cc3)nc(-c3ccncn3)nc2s1 [Example 426, 6-methyl-2-(pyrimidin-4-yl)-N-(3-(4′-(trifluoromethoxy)-[1,1′-biphenyl]-4-yl)propyl)thieno[2,3-d]pyrimidin-4-amine] | 76
Cc1cc2c(NCCCc3ccc(-c4ccc(C#N)cc4)cc3)nc(-c3ccoc3)nc2s1 [Example 427, 4′-(3-((2-(furan-3-yl)-6-methylthieno[2,3-d]pyrimidin-4-yl)amino)propyl)-[1,1′-biphenyl]-4-carbonitrile] | 16
Cc1cc2c(NCCCc3ccc(-c4ccc(C(F)(F)F)nc4)cc3)nc(-c3ccoc3)nc2s1 [Example 428, 2-(furan-3-yl)-6-methyl-N-(3-(4-(6-(trifluoromethyl)pyridin-3-yl)phenyl)propyl)thieno[2,3-d]pyrimidin-4-amine] | 20
